Earlier results in US12697292B2, “Method for treating human hair with agents containing mixtures of organic C1-C6 alkoxy siloxanes” (Henkel AG & Co. KGaA, priority 2021, dated 2026).

Conditions: 25° C.

solubility in water	SMILES	water solubility
	CCN(Cc1cccc(S(=O)(=O)[O-])c1)c1ccc(C(=C2C=CC(=[N+](CC)Cc3cccc(S(=O)(=O)[O-])c3)C=C2)c2ccccc2S(=O)(=O)[O-])cc1.[Na+].[Na+] [Acid Blue 9]	more than 20 wt. %
	O=S(=O)([O-])c1ccc(N=Nc2c(O)ccc3ccccc23)cc1.[Na+] [Acid Orange 7, sodium salt of 4-[(2-hydroxy-1-naphthyl)azo] benzene sulphonate]	more than 7 g/L
	Nc1cc(S(=O)(=O)[O-])cc2cc(S(=O)(=O)[O-])c(N=Nc3ccccc3)c(O)c12.[Na+].[Na+] [Acid Red 33, dianhydro salt of 5-amino-4-hydroxy-3-(phenylazo)-naphthalene-2,7-disulfonate]	2500 µg/mL
	O=C([O-])c1c(Cl)c(Cl)c(Cl)c(Cl)c1-c1c2cc(Br)c(=O)c(Br)c-2oc2c(Br)c([O-])c(Br)cc12.[Na+].[Na+] [Acid Red 92, disodium salt of 3,4,5,6-tetrachloro-2-(1,4,5,8-tetrabromo-6-hydroxy-3-oxanthene-9-yl) benzoic acid]	greater than 10 g/L
readily soluble	O=C([O-])C1=NN(c2ccc(S(=O)(=O)[O-])cc2)C(=O)C1N=Nc1ccc(S(=O)(=O)[O-])cc1.[Na+].[Na+].[Na+] (centres unmarked) [Acid Yellow 23, trisodium salt of 4,5-dihydro-5-oxo-1-(4-sulfophenyl)-4-((4-sulfophenyl)azo)-1H-pyrazole-3−carboxylic acid]	
